From PubChem BioAssay AID328 (DTP/NCI, 2004)
Values joined by “and” are separate entries in the source; they are usually repeats but may differ in a detail not shown here. Equal values may be shown once. Inconclusive results and toxic doses are left out.

Test system: BDF1 mice, P388 leukemia ip, median survival T/C
Assay: NCI In Vivo Anticancer Drug Screen. Data for tumor model P388 Leukemia (intraperitoneal) in B6D2F1 (BDF1) mice
Settings: endpoint: median survival time, higher = longer survival
How it was run: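 Mice carrying the transplantable tumour receive compound or vehicle. Survival is followed in each arm, and the treated measure is divided by the vehicle measure.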

[1] = dose: 100.0 mg/kg/injection, schedule: Q04DX003 (ip), vehicle: saline
[2] = dose: 200.0 mg/kg/injection, schedule: Q04DX003 (ip), vehicle: saline
[3] = dose: 400.0 mg/kg/injection, schedule: Q04DX003 (ip), vehicle: saline
[4] = dose: 12.5 mg/kg/injection, schedule: Q01DX009 (ip), vehicle: saline with Tween-80
[5] = dose: 25.0 mg/kg/injection, schedule: Q01DX009 (ip), vehicle: saline with Tween-80
[6] = dose: 50.0 mg/kg/injection, schedule: Q01DX009 (ip), vehicle: saline with Tween-80
[7] = dose: 100.0 mg/kg/injection, schedule: Q01DX009 (ip), vehicle: saline with Tween-80
[8] = dose: 200.0 mg/kg/injection, schedule: Q01DX009 (ip), vehicle: saline with Tween-80

Structure (SMILES): C[C@]12C=CC(=O)C=C1CC[C@@H]1[C@@H]2C(=O)C[C@@]2(C)[C@H]1CC[C@]2(O)C(=O)CO
- T/C (dose: 0.8 mg/kg/injection, schedule: Q01DX009 (ip), vehicle: carboxymethylcellulose (CMC)): 90 % of control
- T/C (dose: 1.6 mg/kg/injection, schedule: Q01DX009 (ip), vehicle: carboxymethylcellulose (CMC)): 99 % of control
- T/C (dose: 3.12 mg/kg/injection, schedule: Q01DX009 (ip), vehicle: carboxymethylcellulose (CMC)): 99 % of control
- T/C (dose: 6.25 mg/kg/injection, schedule: Q01DX009 (ip), vehicle: carboxymethylcellulose (CMC)): 89 % of control and 103 % of control
- T/C (dose: 6.25 mg/kg/injection, schedule: Q03HX008 (ip), vehicle: saline): 107 % of control
- T/C (dose: 6.25 mg/kg/injection, schedule: Q03HX016 (ip), vehicle: saline): 100 % of control
- T/C (dose: 6.25 mg/kg/injection, schedule: Q03HX024 (ip), vehicle: saline): 100 % of control
- T/C (dose: 12.5 mg/kg/injection, schedule: Q01DX009 (ip), vehicle: carboxymethylcellulose (CMC)): 87 % of control and 89 % of control
- T/C (dose: 12.5 mg/kg/injection, schedule: Q03HX008 (ip), vehicle: saline): 100 % of control
- T/C (dose: 12.5 mg/kg/injection, schedule: Q03HX016 (ip), vehicle: saline): 100 % of control
- T/C (dose: 12.5 mg/kg/injection, schedule: Q03HX024 (ip), vehicle: saline): 87 % of control
- T/C (dose: 25.0 mg/kg/injection, schedule: Q03HX008 (ip), vehicle: saline): 100 % of control
- T/C (dose: 25.0 mg/kg/injection, schedule: Q03HX016 (ip), vehicle: saline): 100 % of control
- T/C (dose: 25.0 mg/kg/injection, schedule: Q03HX024 (ip), vehicle: saline): 87 % of control
- T/C (dose: 44.0 mg/kg/injection, schedule: Q04DX003 (sc), vehicle: Klucel (hydroxypropylcellulose) (HPC)): 113 % of control
- T/C (dose: 50.0 mg/kg/injection, schedule: Q01DX001 (ip), vehicle: saline): 107 % of control
- T/C (dose: 50.0 mg/kg/injection, schedule: Q01DX009 (ip), vehicle: carboxymethylcellulose (CMC)): 90 % of control and 93 % of control
- T/C (dose: 50.0 mg/kg/injection, schedule: Q03HX008 (ip), vehicle: saline): 100 % of control
- T/C (dose: 50.0 mg/kg/injection, schedule: Q03HX016 (ip), vehicle: saline): 107 % of control
- T/C (dose: 50.0 mg/kg/injection, schedule: Q03HX024 (ip), vehicle: saline): 87 % of control
- T/C (dose: 50.0 mg/kg/injection, schedule: Q04DX003 (ip), vehicle: saline): 93 % of control
- T/C (dose: 50.0 mg/kg/injection, schedule: Q08DX002 (ip), vehicle: saline): 87 % of control
- T/C (dose: 67.0 mg/kg/injection, schedule: Q04DX003 (sc), vehicle: Klucel (hydroxypropylcellulose) (HPC)): 114 % of control
- T/C (dose: 100.0 mg/kg/injection, schedule: Q01DX001 (ip), vehicle: saline): 114 % of control
- T/C (dose: 100.0 mg/kg/injection, schedule: Q03HX008 (ip), vehicle: saline): 100 % of control
- T/C (dose: 100.0 mg/kg/injection, schedule: Q03HX016 (ip), vehicle: saline): 114 % of control
- T/C (dose: 100.0 mg/kg/injection, schedule: Q03HX024 (ip), vehicle: saline): 87 % of control
- T/C [1]: 106 % of control
- T/C (dose: 100.0 mg/kg/injection, schedule: Q04DX003 (sc), vehicle: Klucel (hydroxypropylcellulose) (HPC)): 113 % of control
- T/C (dose: 100.0 mg/kg/injection, schedule: Q08DX002 (ip), vehicle: saline): 87 % of control
- T/C (dose: 200.0 mg/kg/injection, schedule: Q01DX001 (ip), vehicle: saline): 114 % of control
- T/C [2]: 100 % of control
- T/C (dose: 200.0 mg/kg/injection, schedule: Q08DX002 (ip), vehicle: saline): 100 % of control
- T/C (dose: 400.0 mg/kg/injection, schedule: Q01DX001 (ip), vehicle: saline): 121 % of control
- T/C [3]: 106 % of control
- T/C (dose: 400.0 mg/kg/injection, schedule: Q08DX002 (ip), vehicle: saline): 87 % of control
- T/C (dose: 800.0 mg/kg/injection, schedule: Q01DX001 (ip), vehicle: saline): 121 % of control
- T/C (dose: 800.0 mg/kg/injection, schedule: Q04DX003 (ip), vehicle: saline): 106 % of control
- T/C (dose: 800.0 mg/kg/injection, schedule: Q08DX002 (ip), vehicle: saline): 100 % of control

Structure (SMILES): Clc1ccc(CNc2ncnc3[nH]ncc23)cc1
- T/C (dose: 3.13 mg/kg/injection, schedule: Q01DX009 (ip), vehicle: saline with Tween-80): 91 % of control
- T/C (dose: 6.25 mg/kg/injection, schedule: Q01DX009 (ip), vehicle: saline with Tween-80): 87 % of control
- T/C [4]: 89 % of control
- T/C [5]: 105 % of control

Structure (SMILES): COc1ccccc1C(=O)/C=C\c1ccc(OCc2ccccc2)cc1
- T/C [6]: 89 % of control
- T/C [7]: 86 % of control
- T/C [8]: 87 % of control

Structure (SMILES): O=P(OCc1ccccc1)(N(CCCl)CCCl)N1CCN(P(=O)(OCc2ccccc2)N(CCCl)CCCl)CC1 (stereo not drawn)
- T/C (dose: 132.0 mg/kg/injection, schedule: Q04DX003 (ip), vehicle: saline with Tween-80): 172 % of control
- T/C (dose: 200.0 mg/kg/injection, schedule: Q04DX003 (ip), vehicle: saline with Tween-80): 154 % of control and 172 % of control

Structure (SMILES): C[n+]1ccc2cc(-c3ccccc3)c3ccccc3c2c1
- T/C (dose: 0.06 mg/kg/injection, schedule: Q01DX009 (ip), vehicle: water): 100 % of control
- T/C (dose: 0.12 mg/kg/injection, schedule: Q01DX009 (ip), vehicle: water): 88 % of control
- T/C (dose: 0.25 mg/kg/injection, schedule: Q01DX009 (ip), vehicle: water): 89 % of control
- T/C (dose: 0.5 mg/kg/injection, schedule: Q01DX009 (ip), vehicle: water): 100 % of control
- T/C (dose: 1.0 mg/kg/injection, schedule: Q01DX009 (ip), vehicle: water): 100 % of control and 101 % of control
- T/C (dose: 2.0 mg/kg/injection, schedule: Q01DX009 (ip), vehicle: water): 101 % of control
- T/C (dose: 4.0 mg/kg/injection, schedule: Q01DX009 (ip), vehicle: water): 99 % of control

Structure (SMILES): CC(CO)S(=O)(=O)C(C)(C)C (stereo not drawn)
- T/C [1]: 94 % of control
- T/C [2]: 95 % of control
- T/C [3]: 94 % of control

Structure (SMILES): O=C(O)c1ccccc1Nc1ccc(Br)cc1
- T/C (dose: 50.0 mg/kg/injection, schedule: Q01DX001 (ip), vehicle: saline with Tween-80): 100 % of control
- T/C (dose: 100.0 mg/kg/injection, schedule: Q01DX001 (ip), vehicle: saline with Tween-80): 91 % of control

Structure (SMILES): CC1CC2C(CC1O)C2(C)C (stereo not drawn)
- T/C [4]: 100 % of control
- T/C [5]: 95 % of control
- T/C [6]: 109 % of control
- T/C (dose: 100.0 mg/kg/injection, schedule: Q04DX003 (ip), vehicle: saline sonified): 111 % of control
- T/C (dose: 200.0 mg/kg/injection, schedule: Q04DX003 (ip), vehicle: saline sonified): 111 % of control
- T/C (dose: 400.0 mg/kg/injection, schedule: Q04DX003 (ip), vehicle: saline sonified): 100 % of control

Structure (SMILES): Cc1ccc2ccccc2n1
- T/C [1]: 87 % of control
- T/C [2]: 91 % of control

Structure (SMILES): O=C(/C=C/c1ccc(OCc2ccccc2)cc1)c1ccc(Cl)cc1Cl
- T/C [6]: 91 % of control
- T/C [7]: 89 % of control
- T/C [8]: 89 % of control

Structure (SMILES): COc1cc2ccc(CCN)cc2cc1OC
- T/C [4]: 95 % of control
- T/C [5]: 108 % of control
- T/C [6]: 87 % of control

Structure (SMILES): C=CC(N)C(=O)O (stereo not drawn)
- T/C (dose: 100.0 mg/kg/injection, schedule: Q04DX002 (ip), vehicle: saline with Tween-80): 117 % of control
- T/C (dose: 200.0 mg/kg/injection, schedule: Q04DX002 (ip), vehicle: saline with Tween-80): 108 % of control
- T/C (dose: 400.0 mg/kg/injection, schedule: Q04DX002 (ip), vehicle: saline with Tween-80): 100 % of control

Structure (SMILES): COc1ccc(CC2c3cc(OC)c(OC)cc3CCN2C)cc1OC (stereo not drawn)
- T/C (dose: 50.0 mg/kg/injection, schedule: Q01DX005 (ip), vehicle: saline with Tween-80): 90 % of control
